Source: PubChem BioAssay (NCI)
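Values below derive from 48-hour exposures of cells grown in 96-well plates, with endpoints linearly interpolated between the two concentrations bracketing the appropriate inhibition level. The concentration for 50% growth inhibition is given as GI50. At the TGI there is no net growth.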

How the values were obtained:
Test in all cases: NCI tumour cell line growth inhibition, 48 h; in the data active means GI50 below about 0.43 µM; inactive means the rest
786-0 renal = tested on: 786-0 renal
A498 renal = tested on: A498 renal
A549 NSCLC = tested on: A549 NSCLC
ACHN renal = tested on: ACHN renal
BT-549 breast = tested on: BT-549 breast
CAKI-1 renal = tested on: CAKI-1 renal
CCRF-CEM leukemia = tested on: CCRF-CEM leukemia
COLO 205 colon = tested on: COLO 205 colon
DU-145 prostate = tested on: DU-145 prostate
EKVX NSCLC = tested on: EKVX NSCLC
HCC-2998 colon = tested on: HCC-2998 colon
HCT-116 colon = tested on: HCT-116 colon
HCT-15 colon = tested on: HCT-15 colon
HL-60(TB) leukemia = tested on: HL-60(TB) leukemia
HOP-62 NSCLC = tested on: HOP-62 NSCLC
HS 578T breast = tested on: HS 578T breast
HT29 colon = tested on: HT29 colon
IGROV1 ovarian = tested on: IGROV1 ovarian
K-562 leukemia = tested on: K-562 leukemia
KM12 colon = tested on: KM12 colon
LOX IMVI melanoma = tested on: LOX IMVI melanoma
M14 melanoma = tested on: M14 melanoma
MALME-3M melanoma = tested on: MALME-3M melanoma
MDA-MB-231 breast = tested on: MDA-MB-231 breast
MDA-MB-435 = tested on: MDA-MB-435
NCI-H226 lung = tested on: NCI-H226 lung
NCI-H23 lung = tested on: NCI-H23 lung
NCI-H522 lung = tested on: NCI-H522 lung
NCI/ADR-RES ovarian = tested on: NCI/ADR-RES ovarian
OVCAR-3 ovarian = tested on: OVCAR-3 ovarian
OVCAR-4 ovarian = tested on: OVCAR-4 ovarian
OVCAR-5 ovarian = tested on: OVCAR-5 ovarian
OVCAR-8 ovarian = tested on: OVCAR-8 ovarian
PC-3 prostate = tested on: PC-3 prostate
RPMI-8226 leukemia = tested on: RPMI-8226 leukemia
RXF 393 renal = tested on: RXF 393 renal
SF-295 CNS = tested on: SF-295 CNS
SF-539 CNS = tested on: SF-539 CNS
SK-MEL-2 melanoma = tested on: SK-MEL-2 melanoma
SK-MEL-28 melanoma = tested on: SK-MEL-28 melanoma
SK-OV-3 ovarian = tested on: SK-OV-3 ovarian
SN12C renal = tested on: SN12C renal
SNB-75 CNS = tested on: SNB-75 CNS
SR leukemia = tested on: SR leukemia
SW-620 colon = tested on: SW-620 colon
T-47D breast = tested on: T-47D breast
TK-10 renal = tested on: TK-10 renal
U251 CNS = tested on: U251 CNS
UACC-257 melanoma = tested on: UACC-257 melanoma
UACC-62 melanoma = tested on: UACC-62 melanoma
UO-31 renal = tested on: UO-31 renal

C=CCC(N[C@H](CO)c1ccccc1)c1ccc2ccccc2n1 (some centres not stated)
inactive: GI50 (786-0 renal) > 100 µM | GI50 (A498 renal) 29.3 µM | GI50 (A549 NSCLC) > 100 µM | GI50 (ACHN renal) > 100 µM | GI50 (BT-549 breast) > 100 µM | GI50 (CAKI-1 renal) > 100 µM | GI50 (CCRF-CEM leukemia) > 100 µM | GI50 (COLO 205 colon) > 100 µM | GI50 (DU-145 prostate) > 100 µM | GI50 (EKVX NSCLC) > 100 µM | GI50 (HCC-2998 colon) > 100 µM | GI50 (HCT-116 colon) > 100 µM | GI50 (HCT-15 colon) > 100 µM | GI50 (HL-60(TB) leukemia) 48.7 µM | GI50 (HOP-62 NSCLC) > 100 µM | GI50 (HS 578T breast) 22.5 µM | GI50 (HT29 colon) > 100 µM | GI50 (IGROV1 ovarian) 45.9 µM | GI50 (K-562 leukemia) > 100 µM | GI50 (KM12 colon) > 100 µM | GI50 (LOX IMVI melanoma) > 100 µM | GI50 (M14 melanoma) > 100 µM | GI50 (MALME-3M melanoma) > 100 µM | GI50 (MDA-MB-231 breast) > 100 µM | GI50 (MDA-MB-435) > 100 µM | GI50 (NCI-H226 lung) > 100 µM | GI50 (NCI-H23 lung) > 100 µM | GI50 (NCI-H522 lung) > 100 µM | GI50 (NCI/ADR-RES ovarian) > 100 µM | GI50 (OVCAR-3 ovarian) > 100 µM | GI50 (OVCAR-4 ovarian) > 100 µM | GI50 (OVCAR-5 ovarian) > 100 µM | GI50 (OVCAR-8 ovarian) > 100 µM | GI50 (PC-3 prostate) > 100 µM | GI50 (RPMI-8226 leukemia) > 100 µM | GI50 (RXF 393 renal) > 100 µM | GI50 (SF-295 CNS) > 100 µM | GI50 (SF-539 CNS) > 100 µM | GI50 (SK-MEL-2 melanoma) > 100 µM | GI50 (SK-MEL-28 melanoma) > 100 µM | GI50 (SK-OV-3 ovarian) > 100 µM | GI50 (SN12C renal) > 100 µM | GI50 (SNB-75 CNS) > 100 µM | GI50 (SR leukemia) > 100 µM | GI50 (SW-620 colon) > 100 µM | GI50 (T-47D breast) > 100 µM | GI50 (TK-10 renal) > 100 µM | GI50 (U251 CNS) > 100 µM | GI50 (UACC-257 melanoma) > 100 µM | GI50 (UACC-62 melanoma) > 100 µM | GI50 (UO-31 renal) > 100 µM
> 100 µM: TGI (786-0 renal) | TGI (A498 renal) | TGI (A549 NSCLC) | TGI (ACHN renal) | TGI (BT-549 breast) | TGI (CAKI-1 renal) | TGI (CCRF-CEM leukemia) | TGI (COLO 205 colon) | TGI (DU-145 prostate) | TGI (EKVX NSCLC) | TGI (HCC-2998 colon) | TGI (HCT-116 colon) | TGI (HCT-15 colon) | TGI (HL-60(TB) leukemia) | TGI (HOP-62 NSCLC) | TGI (HS 578T breast) | TGI (HT29 colon) | TGI (IGROV1 ovarian) | TGI (K-562 leukemia) | TGI (KM12 colon) | TGI (LOX IMVI melanoma) | TGI (M14 melanoma) | TGI (MALME-3M melanoma) | TGI (MDA-MB-231 breast) | TGI (MDA-MB-435) | TGI (NCI-H226 lung) | TGI (NCI-H23 lung) | TGI (NCI-H522 lung) | TGI (NCI/ADR-RES ovarian) | TGI (OVCAR-3 ovarian) | TGI (OVCAR-4 ovarian) | TGI (OVCAR-5 ovarian) | TGI (OVCAR-8 ovarian) | TGI (PC-3 prostate) | TGI (RPMI-8226 leukemia) | TGI (RXF 393 renal) | TGI (SF-295 CNS) | TGI (SF-539 CNS) | TGI (SK-MEL-2 melanoma) | TGI (SK-MEL-28 melanoma) | TGI (SK-OV-3 ovarian) | TGI (SN12C renal) | TGI (SNB-75 CNS) | TGI (SR leukemia) | TGI (SW-620 colon) | TGI (T-47D breast) | TGI (TK-10 renal) | TGI (U251 CNS) | TGI (UACC-257 melanoma) | TGI (UACC-62 melanoma) | TGI (UO-31 renal)
